Measurements as given in patent publication US7722906B2, “Polyunsaturated fatty acid fractions of Nigella sativa L. seeds” (priority 2004, dated 2010).

Test system: writhing induced by parabenzoquinone
Assay: Analgesic activity, writhing method
Type: in vivo, mice
Conditions: 5.0 mg/100 g.b.w.
Experimental: The analgesic activity of the Nigella sativa L. polyunsaturated fatty acid fraction was studied using the writhing method described by Okun et al. (1963). Thirty mature mice of both sexes weighing from 20 to 25 gm were divided into 3 groups of 10 mice each. The first group served as a control and the second group served as a standard (treated with paracetamol in a dose of 5 mg/100 gm body weight). The third group was injected subcutaneously with the Nigella sativa L. polyunsaturated fatty acid fraction. […] […] Animals devoid of writhing in each group were recorded and the analgesic potencies of paracetamol and the Nigella sativa L. polyunsaturated fatty acid fraction were determined as percent protection against writhing.

SMILES: CC(=O)Nc1ccc(O)cc1 [Paracetamol, paracetamol]
- % Protection (30 minutes): 100%
- % Protection (60 minutes): 60%
- % Protection (90 minutes): 40%
- % Protection (120 minutes): 20%
